Patent US7342014B2, “Diamine derivatives” (Daiichi Pharmaceutical Co., Ltd., priority 2001, dated 2008)
Structures can show the parent of a compound that is named as a salt.

| Compound | melting point |
| --- | --- |
| CC(C)N1CCc2nc(C(=O)N[C@@H]3CN(S(C)(=O)=O)C[C@H]3NC(=O)c3cc4cc(Cl)ccc4[nH]3)sc2C1 (as salt: hydrochloride) | 230 to 235 °C (dec.) |
| CN1CCc2nc(C(=O)N[C@@H]3CNC[C@H]3NC(=O)c3cc4cc(Cl)ccc4[nH]3)sc2C1 (as salt: hydrochloride) | 248 to 250 °C (dec.) |
| CC(=O)N1C[C@@H](NC(=O)c2cc3cc(Cl)ccc3[nH]2)[C@H](NC(=O)c2nc3c(s2)CN(C(C)C)CC3)C1 (as salt: hydrochloride) [Example 114, N-((3R,4R)-1-Acetyl-4-{[(5-chloroindol-2-yl)carbonyl]-amino}pyrrolidin-3-yl)-5-isopropyl-4,5,6,7-tetrahydro-thiazolo[5,4-c]pyridine-2-carboxamide hydrochloride] | 254 to 258 °C (dec.) |
| CCOC(=O)N1C[C@@H](NC(=O)c2cc3cc(Cl)ccc3[nH]2)[C@H](NC(=O)c2nc3c(s2)CN(C(C)C)CC3)C1 (as salt: hydrochloride) [Example 116, Ethyl (3R,4R)-3-{[(5-chloroindol-2-yl)carbonyl]amino}-4-{[(5-isopropyl-4,5,6,7-tetrahydrothiazolo[5,4-c]pyridin-2-yl)carbonyl]amino}pyrrolidine-1-carboxylate hydrochloride] | 225 to 228 °C (dec.) |
| CC(=O)N1CC[C@H](NC(=O)c2cc3cc(F)ccc3[nH]2)[C@H](NC(=O)c2nc3c(s2)CN(C)CC3)C1 (relative stereo) (as salt: hydrochloride) | 202 °C (dec.) |
| CN1CCc2nc(C(=O)N[C@@H]3CCN(S(C)(=O)=O)C[C@@H]3NC(=O)c3cc4cc(Cl)ccc4[nH]3)sc2C1 (relative stereo) (as salt: hydrochloride) | 228 to 245 °C (dec.) |
| CN1CCc2nc(C(=O)N[C@@H]3CN(C(=O)C4CCC4)CC[C@@H]3NC(=O)c3cc4cc(Cl)ccc4[nH]3)sc2C1 (relative stereo) (as salt: hydrochloride) | 271 to 275 °C (dec.) |
| CN1CCc2nc(C(=O)N[C@@H]3CN(C(=O)C4CCCC4)CC[C@@H]3NC(=O)c3cc4cc(Cl)ccc4[nH]3)sc2C1 (relative stereo) (as salt: hydrochloride) | 254 to 260 °C (dec.) |
| COCC(=O)N1CC[C@H](NC(=O)c2cc3cc(F)ccc3[nH]2)[C@H](NC(=O)c2nc3c(s2)CN(C)CC3)C1 (relative stereo) (as salt: hydrochloride) | 190 to 208 °C (dec.) |
| CN1CCc2nc(C(=O)N[C@@H]3CN(C(=O)C4CC(O)C4)CC[C@@H]3NC(=O)c3cc4cc(Cl)ccc4[nH]3)sc2C1 (relative stereo) (as salt: hydrochloride) | 200 °C (dec.) |
| COC1CC(C(=O)N2CC[C@H](NC(=O)c3cc4cc(Cl)ccc4[nH]3)[C@H](NC(=O)c3nc4c(s3)CN(C)CC4)C2)C1 (relative stereo) (as salt: hydrochloride) | 191 °C (dec.) |
| CN1CCc2nc(C(=O)N[C@@H]3CN(C(=O)C4CCOCC4)CC[C@@H]3NC(=O)c3cc4cc(Cl)ccc4[nH]3)sc2C1 (relative stereo) (as salt: hydrochloride) | 225 to 248 °C (dec.) |
| COCC(=O)N1CC[C@H](NC(=O)c2cc3cc(Cl)ccc3[nH]2)[C@H](NC(=O)c2nc3c(s2)CN(C(C)(C)CO)CC3)C1 (relative stereo) (as salt: hydrochloride) | 221 to 232 °C (dec.) |
| COCC(=O)N1CC[C@H](NC(=O)c2cc3cc(F)ccc3[nH]2)[C@H](NC(=O)c2nc3c(s2)CN(C(C)C)CC3)C1 (relative stereo) (as salt: hydrochloride) | 214 to 228 °C (dec.) |
| CN1CCc2nc(C(=O)N[C@@H]3CNCC[C@@H]3NC(=O)c3cc4cc(Cl)ccc4[nH]3)sc2C1 (relative stereo) (as salt: hydrochloride) [Example 118, N-((3R*,4S*)-4-{[(5-Chloroindol-2-yl)carbonyl]amino}-piperidin-3-yl)-5-methyl-4,5,6,7-tetrahydrothiazolo[5,4-c]pyridine-2-carboxamide dihydrochloride] | 240 to 258 °C (dec.) |
| CN1CCc2nc(C(=O)N[C@@H]3CNCC[C@@H]3NC(=O)c3cc4cc(F)ccc4[nH]3)sc2C1 (relative stereo) (as salt: hydrochloride) [Example 122, N-((3R*,4S*)-4-{[(5-Fluoroindol-2-yl)carbonyl]amino}-piperidin-3-yl)-5-methyl-4,5,6,7-tetrahydrothiazolo[5,4-c]pyridine-2-carboxamide dihydrochloride] | 236 to 245 °C (dec.) |
| CN1CCc2nc(C(=O)N[C@@H]3CN(S(C)(=O)=O)CC[C@@H]3NC(=O)c3cc4cc(Cl)ccc4[nH]3)sc2C1 (relative stereo) (as salt: hydrochloride) [Example 126, N-[(3R*,4S*)-{[(5-Chloroindol-2-yl)carbonyl]amino}-1-(methylsulfonyl)piperidin-3-yl]-5-methyl-4,5,6,7-tetrahydrothiazolo[5,4-c]pyridine-2-carboxamide hydrochloride] | 225 to 230 °C (dec.) |
| CN1CCc2nc(C(=O)N[C@@H]3CN(S(C)(=O)=O)CC[C@@H]3NC(=O)c3cc4cc(F)ccc4[nH]3)sc2C1 (relative stereo) (as salt: hydrochloride) [Example 128] | 216 to 250 °C (dec.) |

More lines, now with the values ahead:

| melting point | Compound |
| --- | --- |
| 207 to 220 °C (dec.) | COCC(=O)N1CC[C@H](NC(=O)c2cc3cc(Cl)ccc3[nH]2)[C@H](NC(=O)c2nc3c(s2)CN(C)CC3)C1 (as salt: hydrochloride) [Example 171, N-[(3R,4S)-4-{[(5-Chloroindol-2-yl)carbonyl]amino}-1-(2-methoxyacetyl)piperidin-3-yl]-5-methyl-4,5,6,7-tetrahydro-thiazolo[5,4-c]pyridine-2-carboxamide hydrochloride] |
| 213 to 230 °C | COCC(=O)N1CC[C@@H](NC(=O)c2cc3cc(Cl)ccc3[nH]2)[C@H](NC(=O)c2nc3c(s2)CN(C)CC3)C1 (as salt: hydrochloride) [Example 172, N-[(3R,4R)-4-{[(5-Chloroindol-2-yl)carbonyl]amino}-1-(2-methoxyacetyl)piperidin-3-yl]-5-methyl-4,5,6,7-tetrahydro-thiazolo[5,4-c]pyridine-2-carboxamide hydrochloride] |
| 224 to 226 °C (dec.) | COCCOC(=O)N1CC[C@H](NC(=O)c2cc3cc(Cl)ccc3[nH]2)[C@H](NC(=O)c2nc3c(s2)CN(C)CC3)C1 (relative stereo) (as salt: hydrochloride) |
| 213 to 225 °C (dec.) | CCOC(=O)N1CC[C@@H](NC(=O)c2nc3c(s2)CN(C)CC3)[C@@H](NC(=O)c2cc3cc(Cl)ccc3[nH]2)C1 (relative stereo) (as salt: hydrochloride) |
| 266 to 272 °C (dec.) | CC(C)C(=O)N1CC[C@H](NC(=O)c2cc3cc(Cl)ccc3[nH]2)[C@H](NC(=O)c2nc3c(s2)CN(C)CC3)C1 (relative stereo) (as salt: hydrochloride) |
| 250 to 255 °C (dec.) | CN1CCc2nc(C(=O)N[C@@H]3CN(C(=O)C(C)(C)C)CC[C@@H]3NC(=O)c3cc4cc(Cl)ccc4[nH]3)sc2C1 (relative stereo) (as salt: hydrochloride) |
| 221 to 235 °C (dec.) | CCNC(=O)N1CC[C@H](NC(=O)c2cc3cc(Cl)ccc3[nH]2)[C@H](NC(=O)c2nc3c(s2)CN(C)CC3)C1 (relative stereo) (as salt: hydrochloride) |
| 238 to 242 °C (dec.) | COCCN1CC[C@H](NC(=O)c2cc3cc(Cl)ccc3[nH]2)[C@H](NC(=O)c2nc3c(s2)CN(C)CC3)C1 (relative stereo) (as salt: hydrochloride) |
| 225 to 250 °C (dec.) | CC(=O)N1CC[C@@H](NC(=O)c2nc3c(s2)CN(C)CC3)[C@@H](NC(=O)c2cc3cc(Cl)ccc3[nH]2)C1 (relative stereo) (as salt: hydrochloride) [Example 124, N-((3R*,4S*)-1-Acetyl-3-{[(5-chloroindol-2-yl)carbonyl]-amino}piperidin-4-yl)-5-methyl-4,5,6,7-tetrahydro-thiazolo[5,4-c]pyridine-2-carboxamide hydrochloride] |
| 248 to 253 °C (dec.) | COC(=O)N1CC[C@H](NC(=O)c2cc3cc(Cl)ccc3[nH]2)[C@H](NC(=O)c2nc3c(s2)CN(C)CC3)C1 (relative stereo) (as salt: hydrochloride) [Example 129, Methyl (3R*,4S*)-4-{[(5-chloroindol-2-yl)carbonyl]amino}-3-{[(5-methyl-4,5,6,7-tetrahydrothiazolo[5,4-c]pyridin-2-yl)carbonyl]amino}piperidine-1-carboxylate hydrochloride] |
| 215 to 225 °C (dec.) | CCOC(=O)N1CC[C@H](NC(=O)c2cc3cc(Cl)ccc3[nH]2)[C@H](NC(=O)c2nc3c(s2)CN(C)CC3)C1 (relative stereo) (as salt: hydrochloride) [Example 130, Ethyl (3R*,4S*)-4-{[(5-chloroindol-2-yl)carbonyl]amino}-3-{[(5-methyl-4,5,6,7-tetrahydrothiazolo[5,4-c]pyridin-2-yl)carbonyl]amino}piperidine-1-carboxylate hydrochloride] |
| 214 to 228 °C (dec.) | CCC(=O)N1CC[C@H](NC(=O)c2cc3cc(Cl)ccc3[nH]2)[C@H](NC(=O)c2nc3c(s2)CN(C)CC3)C1 (relative stereo) (as salt: hydrochloride) [Example 133, N-((3R*,4S*)-4-{[(5-Chloroindol-2-yl)carbonyl]amino}-1-propionylpiperidin-3-yl)-5-methyl-4,5,6,7-tetrahydro-thiazolo[5,4-c]pyridine-2-carboxamide hydrochloride] |
| 260 to 265 °C (dec.) | CN1CCc2nc(C(=O)N[C@@H]3CN(C(=O)CC(C)(C)C)CC[C@@H]3NC(=O)c3cc4cc(Cl)ccc4[nH]3)sc2C1 (relative stereo) (as salt: hydrochloride) [Example 136, N-[(3R*,4S*)-4-{[(5-Chloroindol-2-yl)carbonyl]amino}-1-(3,3-dimethylbutanoyl)piperidin-3-yl]-5-methyl-4,5,6,7-tetrahydrothiazolo[5,4-c]pyridine-2-carboxamide hydrochloride] |
